Measured values published in ChEMBL document CHEMBL1148872, “Bradykinin B1 antagonists: biphenyl SAR studies in the cyclopropanecarboxamide series” (Bioorg Med Chem Lett, 2007).

Tests used:
B1 bradykinin receptor = target: T1, B1 bradykinin receptor (Homo sapiens, UniProt P46663); test: Binding affinity to human BK1 receptor
T1 sequence (P46663 whole entry): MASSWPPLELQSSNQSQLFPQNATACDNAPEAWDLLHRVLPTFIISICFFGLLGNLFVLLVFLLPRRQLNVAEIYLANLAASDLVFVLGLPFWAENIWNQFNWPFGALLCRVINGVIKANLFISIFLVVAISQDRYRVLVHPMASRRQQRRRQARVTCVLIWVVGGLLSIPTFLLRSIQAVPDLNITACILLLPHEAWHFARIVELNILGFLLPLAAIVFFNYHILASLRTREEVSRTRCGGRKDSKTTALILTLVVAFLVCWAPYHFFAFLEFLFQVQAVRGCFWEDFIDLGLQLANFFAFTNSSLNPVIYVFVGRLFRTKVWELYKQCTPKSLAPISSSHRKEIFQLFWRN

[1] = Clearance in Sprague-Dawley rat at 10 mg/kg, po or 2 mg/kg, iv; conditions: in vivo
in vivo [2] = conditions: Sprague-Dawley, rat, po, 10 mg/kg
Description: Oral bioavailability in Sprague-Dawley rat at 10 mg/kg, po

[3] = Apparent permeability of the compound; conditions: not told
[4] = Half life in Sprague-Dawley rat at 10 mg/kg, po or 2 mg/kg, iv; conditions: in vivo
[5] = target: T2, B1 bradykinin receptor (Homo sapiens) (UniProt P46663); test: Receptor occupancy efficiency at human BK1 receptor in ex vivo transgenic receptor mouse occupancy model; type: functional
T2 sequence (whole entry): T1 sequence (P46663 whole entry)

in vivo [6] = conditions: mongrel, dog, po, 3 mg/kg
[7] = Half life in rhesus monkey at 3 mg/kg, po or 1 mg/kg, iv; conditions: in vivo
[8] = Partition coefficient, log P of the compound; conditions: octanol/water
in vivo [9] = conditions: rhesus monkey, po, 3 mg/kg
[10] = Ratio of drug level in brain to plasma in african green monkey at 2 mg/kg, iv after 30 mins; conditions: chlorocebus aethiops
[11] = Half life in mongrel dog at 3 mg/kg, po or 1 mg/kg, iv; conditions: in vivo

Row | SMILES | Ki (B1 bradykinin receptor) | bioavailability (in vivo [2]) | Papp [3] | half-life [4] | Occ90 [5] | other results
1 | CCOC(=O)c1c(Cl)cc(Cl)cc1-c1cnc([C@@H](C)NC(=O)C2(NC(=O)C(F)(F)F)CC2)c(F)c1 | 1.8 nM |  |  |  |  | 
2 | COC(=O)c1c(Cl)cc(Cl)cc1-c1ccc([C@@H](C)NC(=O)C2(NC(=O)C(F)(F)F)CC2)c(F)c1 | 0.46 nM | 38% | 18 ×10⁻⁶ cm/s | 4.6 h | 450 nM | bioavailability (in vivo [6]): 19%; half-life [7]: 3.9 h; logP [8]: > 3.8; bioavailability (in vivo [9]): 20%; Kp at 0.5 h ([10]; brain): 1.1
3 | COC(=O)c1ccc(Cl)cc1-c1ccc([C@@H](C)NC(=O)C2(NC(=O)C(F)(F)F)CC2)c(F)c1 | 2.05 nM |  |  |  |  | 
4 | C[C@@H](NC(=O)C1(NC(=O)C(F)(F)F)CC1)c1ccc(-c2cc(Cl)ccc2-c2nnn(C)n2)cc1F | 1.45 nM |  |  |  |  | 
5 | Cc1nc(-c2c(Cl)cc(Cl)cc2-c2ccc([C@@H](C)NC(=O)C3(NC(=O)C(F)(F)F)CC3)c(F)c2)no1 | 2.4 nM | 39% | 23 ×10⁻⁶ cm/s | 5.6 h |  | clearance [1]: 0.8 mL/min/kg
6 | CCOC(=O)c1c(Cl)cccc1-c1cnc([C@@H](C)NC(=O)C2(NC(=O)C(F)(F)F)CC2)c(F)c1 | 1.2 nM | 52% | 28 ×10⁻⁶ cm/s | 0.8 h | 225 nM | clearance [1]: 6.8 mL/min/kg; bioavailability (in vivo [6]): 20%; half-life [7]: 1.1 h; logP [8]: 3.6; bioavailability (in vivo [9]): 12%; Kp at 0.5 h ([10]; brain and plasma): 0.7; half-life [11]: 2.3 h
7 | CCOC(=O)c1c(Cl)cc(Cl)cc1-c1ccc([C@@H](C)NC(=O)C2(NC(=O)C(F)(F)F)CC2)c(F)c1 | 1.85 nM |  |  |  |  | 
8 | COC(=O)c1c(Cl)cccc1-c1ccc([C@@H](C)NC(=O)C2(NC(=O)C(F)(F)F)CC2)c(F)c1 [MK0686] |  |  |  |  | 520 nM | logP [8]: > 3.6; Kp at 0.5 h ([10]; brain and plasma): 0.4

Second part, led by results:

Row | Ki (B1 bradykinin receptor) | bioavailability (in vivo [2]) | Papp [3] | half-life [4] | Occ90 [5] | SMILES | other results
9 | 0.68 nM | 21% | 27 ×10⁻⁶ cm/s | 0.8 h |  | COC(=O)c1c(F)cc(Cl)cc1-c1ccc([C@@H](C)NC(=O)C2(NC(=O)C(F)(F)F)CC2)c(F)c1 | clearance [1]: 13 mL/min/kg
10 | 0.77 nM |  |  |  | 350 nM | COC(=O)c1c(Cl)cccc1-c1cnc([C@@H](C)NC(=O)C2(NC(=O)C(F)(F)F)CC2)c(F)c1 | 
11 | 7.6 nM |  |  |  |  | Cc1noc(-c2ccc(Cl)cc2-c2ccc([C@@H](C)NC(=O)C3(NC(=O)C(F)(F)F)CC3)c(F)c2)n1 | 
12 | 1.58 nM |  |  |  | 540 nM | C[C@@H](NC(=O)C1(NC(=O)C(F)(F)F)CC1)c1ccc(-c2cc(Cl)cc(Cl)c2-c2nnn(C)n2)cc1F | 
13 | 2.6 nM | 19% | 29 ×10⁻⁶ cm/s | 1.3 h | 210 nM | COC(=O)c1c(Cl)cc(Cl)cc1-c1cnc([C@@H](C)NC(=O)C2(NC(=O)C(F)(F)F)CC2)c(F)c1 | clearance [1]: 16.6 mL/min/kg; bioavailability (in vivo [6]): 66%; half-life [7]: 2.5 h; logP [8]: 3.3; bioavailability (in vivo [9]): 12%; Kp at 0.5 h ([10]; brain and plasma): 0.8; half-life [11]: 6.6 h
14 | 3.8 nM |  |  |  |  | C[C@@H](NC(=O)C1(NC(=O)C(F)(F)F)CC1)c1ncc(-c2cc(Cl)cc(Cl)c2-c2nnn(C)n2)cc1F | 
15 | 134 nM |  |  |  |  | COC(=O)c1cc(Cl)ccc1-c1ccc([C@@H](C)NC(=O)C2(NC(=O)C(F)(F)F)CC2)c(F)c1 | 
16 | 1.39 nM |  |  |  |  | Cc1nc(-c2ccc(Cl)cc2-c2ccc([C@@H](C)NC(=O)C3(NC(=O)C(F)(F)F)CC3)c(F)c2)no1 | 
17 | 1.1 nM | 64% | 23 ×10⁻⁶ cm/s | 3.5 h |  | C[C@@H](NC(=O)C1(NC(=O)C(F)(F)F)CC1)c1ccc(-c2cc(Cl)cc(F)c2-c2nnn(C)n2)cc1F | clearance [1]: 2.3 mL/min/kg
